Assay results as given in article PMC6375640, “Genomic insights into neonicotinoid sensitivity in the solitary bee Osmia bicornis” (PLoS Genetics, 2019).
pIC50: −log10 of the molar value. In brackets after ≈: the same amount, converted by molar mass.

Tests used:
O. bicornis [1] = experiment: Acute contact toxicity bioassay; format: in vivo, Osmia bicornis; conditions: for LD50: acute contact, applied to dorsal thorax, thiacloprid limit test 100 μg/bee; for toxicity classification according to U.S. EPA categories: contact exposure
Description: O. bicornis cocoons were purchased from Dr Schubert Plant Breeding (Landsberg, Germany) and stored at 4°C in constant darkness. To trigger emergence cocoons were transferred to an incubator (25°C, 55% RH, L16:D8) with emerged bees fed ab libitum with Biogluc (62% sugar concentration consisting of 37.5% fructose, 34.5% glucose, 25% sucrose, 2% maltose, and 1% oligosaccharides) (Biobest), soaked into a piece of cotton wool inside a plastic dish. Males (which are usually first to emerge) were removed from cages and discarded to reduce any unnecessary stress to the females used in insecticide bioassays.
(§1) Acute contact toxicity bioassays on unmated 2 day old female O. bicornis were conducted following the OECD Honey Bee Test guidelines, with modification where necessary. Bees were anaesthetised with CO2 for 5–10 seconds to allow application of insecticide. 1 μL of technical grade imidacloprid was applied to the dorsal thorax of each bee at concentrations of 0.0001, 0.001, 0.01, 0.1, 1, and 10 μg/μL. No mortality was observed using the same concentrations of thiacloprid so a limit test of 100 μg/bee was performed. Control bees were treated with 1 μL 100% acetone. Three replicates of 10 bees were tested for each concentration. Tested individuals were placed back into cages in the incubator (25°C, 55% RH, L16:D8), with five bees per cage. In piperonyl butoxide (PBO) synergist bioassays, bees were first treated with the maximum sublethal dose (in this case 100 μg/μL) of PBO followed by insecticide one hour later. Synergist bioassays included an additional control group treated only with PBO. Mortality was assessed 48 and 72 hours after application. Probit analysis was used to calculate the LD50 values, slope, and synergism ratio (where relevant) for each insecticide (Genstat v.18 (VSNI 2015)).

O. bicornis [2] = experiment: PBO (piperonyl butoxide) synergist bioassay; format: in vivo, Osmia bicornis; conditions: with vs without PBO pre-treatment one hour before insecticide
Description: as §1

O. bicornis nAChRs = experiment: Radioligand competition binding, [3H]imidacloprid displacement from head membrane preparations; design: species or system Osmia bicornis; conditions: 576 pM radioligand, 60 min room temperature
Description: [^3H]imidacloprid (specific activity 1.406 GBq μmol^−1) displacement studies were conducted using membrane preparations isolated from frozen (−80°C) O. bicornis heads, following previously published protocols. Briefly, bee heads weighing 10 g were homogenized in 200 ml ice-cold 0.1 M potassium phosphate buffer, pH 7.4 containing 95 mM sucrose using a motor-driven Ultra Turrax blender. […] Assays were performed in a 96-well microtitre plate with bonded GF/C filter membrane (Packard UniFilter-96, GF/C) and consisted of 200 μl of homogenate (0.48 mg protein), 25 μl of [^3H]imidacloprid (576 pM) and 25 μl of competing ligand. Ligand concentrations used ranged from 0.001 to 10 000 nM and were tested in triplicate per competition assay. The assay was started by the addition of homogenate and incubated for 60 min at room temperature. Bound [^3H]imidacloprid was quantified by filtration into a second 96-well filter plate (conditioned with ice-cold 100 mM potassium phosphate buffer, pH 7.4 (including BSA 5 g litre−1)) using a commercial cell harvester (Brandel). […] Each well was then loaded with 25 μl of scintillation cocktail (Microszint-O-Filtercount, Packard) and the plate counted in a Topcount scintillation counter (Packard). Non-specific binding was determined using a final concentration of 10 μM unlabelled imidacloprid. […]

O. bicornis cuticle = experiment: Cuticular penetration of radiolabelled insecticide (pharmacokinetic study); format: in vivo, Osmia bicornis; conditions: 24 h after application to dorsal thorax
Description: Bees were anaesthetised with CO2 for 5–10 seconds to allow application of insecticide. 5,000 ppm of [^14C]imidacloprid or [^14C]thiacloprid was applied to the dorsal thorax of each bee using a Hamilton repeating dispenser. Three replicates of five bees were placed into cages and fed a 50% sucrose solution from vertically hanging 2 ml syringes. Control bees were treated with acetone. Radiolabelled insecticide was rinsed off of each group of bees at set time intervals (0, 2, 4 and 24 hours after application) with acetonitrile water (90:10) three times. The […] bees were then individually combusted at 900°C in an Ox 120c oxidizer (Harvey Instruments Co., USA) followed by liquid scintillation counting of the released ^14CO2 in an alkaline scintillation cocktail (Ultima Gold, PerkinElmer) using a liquid scintillation analyser (Perkin Elmer Tri-Carb 2910 TR). The levels of excreted [^14C]imidacloprid or [^14C]thiacloprid, and/or metabolites, were measured by wiping cages with filter papers dipped in acetone and 0.5 mL aliquots of cuticular rinse or filter papers were added to 3 mL of scintillation fluid cocktail and the radioactivity was quantified by liquid scintillation analysis as above. An unpaired t-test was used to compare the penetration of the two compounds at each time point.

CYP9BU1 [3] = experiment: Metabolism assay with recombinant P450/CPR microsomes, UPLC-MS/MS; conditions: for metabolism to 5-hydroxy form: 25 μM insecticide, 5 pmol P450, NADPH, 1 hour, 30°C
Source text: (§2) O. bicornis P450 genes and house fly NADPH-dependent cytochrome P450 reductase (CPR) (GenBank accession no. Q07994) genes were codon optimised for expression in lepidopteran cell lines, synthesized (Geneart, CA, USA) and inserted into the pDEST8 expression vector (Invitrogen). The PFastbac1 vector with no inserted DNA was used to produce a control virus. The recombinant baculovirus DNA was constructed and transfected into Trichoplusia ni (High five cells, Thermo Fisher) using the Bac-to-Bac baculovirus expression system (Invitrogen) according to the manufacturer’s instructions. The titre of the recombinant virus was determined following protocols of the supplier. High Five cells grown to a density of 2 x 10^6 cells ml^-1 were co-infected with recombinant baculoviruses containing each bee P450 and CPR with a range of MOI (multiplicity of infection) ratios to identify the optimal conditions. Control cells were co-infected with the baculovirus containing vector with no insert (ctrl-virus) and the recombinant baculovirus expressing CPR using the same MOI ratios. Ferric citrate and δ-aminolevulinic acid hydrochloride were added to a final concentration of 0.1 mM at the time of infection and 24 h after infection to compensate the low levels of endogenous heme in the insect cells. After 48 h, cells were harvested, washed with PBS, and microsomes of the membrane fraction prepared according to standard procedures and stored at −80°C [41]. Briefly, pellets were homogenised for 30 s in 0.1 M Na/K-phosphate buffer, pH 7.4 containing 1 mM EDTA and DTT and 200 mM sucrose using a Fastprep (MP Biomedicals), filtered through miracloth and centrifuged for 10 min at 680g at 4°C. The supernatant was then centrifuged for 1 h at 100,000g at 4°C, with the pellet subsequently resuspended in 0.1M Na/K-phosphate buffer pH 7.6 containing 1 mM EDTA and DTT and 10% glycerol using a Dounce tissue grinder. P450 expression and functionality was estimated by measuring CO-difference spectra in reduced samples using a Specord 200 Plus Spectrophotometer (Analytik Jena) and scanning from 500 nm to 400 nm. The protein content of samples was determined using Bradford reagent (Sigma) and bovine serum albumin (BSA) as a reference.
(§3) Metabolism of thiacloprid and imidacloprid was assessed by incubating recombinant P450/CPR (5 pmol/well) or control virus/CPR (5 pmol/well) with each insecticide (25 μM) in the presence of an NADPH regeneration system at 30±1°C, shaking, for 1 hour. […] The peak integrals were calibrated externally against a standard calibration curve.

CYP9BU2 [4] = experiment: as above; conditions: for metabolism to 5-hydroxy form: 25 μM insecticide, 5 pmol P450, NADPH, 1 hour, 30°C
Source text: as §2, §3

in vivo = conditions: in vivo; Control strain
Description: (§4) CYP9BU1 and CYP9BU2 were codon optimised for D. melanogaster expression and cloned into the pUASTattB plasmid (GenBank: EF362409.1). These constructs were used to create transgenic fly lines, which were then tested in insecticide bioassays against imidacloprid and thiacloprid, as described previously.

[5] = test system: Drosophila melanogaster control line; experiment: in vivo; conditions: for RR (resistance ratio): Control strain (reference); for Slope (+/- SE): log-dose probit mortality, Control strain
Description: as §4

CYP9BU1 [6] = experiment: Insecticide bioassay on transgenic flies expressing CYP9BU1; format: in vivo, Drosophila melanogaster; conditions: transgenic line expressing CYP9BU1, Drosophila melanogaster, in vivo; CYP9BU1 strain
Description: as §4

[7] = test system: transgenic Drosophila melanogaster expressing CYP9BU1; experiment: as above; format: in vivo; conditions: for RR (resistance ratio): CYP9BU1 strain vs control line; for sensitivity relative to control flies (less sensitive): flies expressing CYP9BU1 vs control flies without transgene
Description: as §4

CYP9BU2 [8] = experiment: Insecticide bioassay on transgenic flies expressing CYP9BU2; format: in vivo, Drosophila melanogaster; conditions: transgenic line expressing CYP9BU2, Drosophila melanogaster, in vivo; CYP9BU2 strain
Description: as §4

[9] = test system: transgenic Drosophila melanogaster expressing CYP9BU2; experiment: as above; format: in vivo; conditions: for RR (resistance ratio): CYP9BU2 strain vs control line; for sensitivity relative to control flies: flies expressing CYP9BU2 vs control flies without transgene
Description: as §4

[10] = test system: adult female O. bicornis gene expression; experiment: RNAseq of bees after sublethal oral neonicotinoid exposure (P450 induction); format: in vivo, Osmia bicornis; conditions: for induction of P450 expression: 24 h after exposure to LD10; for number of genes significantly upregulated: 24 h after exposure to LD10, corrected p <0.05 vs solvent control
Description: (§5) To examine if P450 expression in O. bicornis is induced by exposure to sublethal concentrations of neonicotinoids, imidacloprid and thiacloprid were dissolved in acetone to the highest concentration possible, before being diluted to the LD10 of imidacloprid (0.0001 μg/bee) and thiacloprid (0.01 μg/bee) with 50% sucrose (w/v) in order to limit the amount of acetone consumed by bees. Prior to commencing oral bioassays bees underwent a 24 hour ‘training’ period in the Nicot cages to enable them to learn to feed from the syringes. This was followed by a 16h starvation period to encourage subsequent feeding. 15μL of the insecticide/sucrose solution was supplied orally to the bees in disposable plastic syringes. Control bees were fed 15μL of a sucrose solution containing the same volume of acetone used to make up the insecticide/sucrose solutions. When all of the solution had been consumed the bees were fed ab libitum with a 50% sucrose solution for 24 h. After this period for each condition four replicates comprising 5 bees per replicate were snap frozen in liquid nitrogen and RNA extracted from each replicate as above. RNA was used as a template for the generation of barcoded libraries (TrueSeq RNA library preparation, Illumina) which were sequenced across two lanes of an Illumina HiSeq2500 flowcell (100 bp paired end reads). Sequencing was carried out by Earlham Institute, Norwich, UK. To identify genes differentially expressed between control and the treatment the Tuxedo workflow was used to map with TopHat against the annotated reference genome, to estimate gene expression with Cufflinks and test for differential expression with Cuffdiff.

O. bicornis [11] = experiment: Sublethal dose (LD10) used for oral exposure; format: in vivo, Osmia bicornis; conditions: used as sublethal dose, supplied orally in 50% sucrose
Description: as §5, with “To identify genes differentially expressed between control and the treatment the Tuxedo workflow was used to map with TopHat against the annotated reference genome, to estimate gene expression with Cufflinks and test for differential expression with Cuffdiff.” left out

[12] = production of hydroxy metabolite per pmol P450

Structure (SMILES)	LD50 (O. bicornis [1]; adult female bees) [μg/bee]	toxicity classification according to U.S. EPA categories (O. bicornis [1])	change in sensitivity after PBO pre-treatment (O. bicornis [2])	pIC50 (O. bicornis nAChRs)	final uptake through the cuticle (O. bicornis cuticle) [%]	metabolism to 5-hydroxy form (CYP9BU1 [3])	metabolism to 5-hydroxy form (CYP9BU2 [4])	LC50 (in vivo) [µg/mL]	RR (resistance ratio) [5]	Slope (+/- SE) [5]	LC50 (CYP9BU1 [6]) [µg/mL]	RR (resistance ratio) [7]	sensitivity relative to control flies (less sensitive) [7]	LC50 (CYP9BU2 [8]) [µg/mL]	RR (resistance ratio) [9]	sensitivity relative to control flies [9]	induction of P450 expression [10]	number of genes significantly upregulated [10] [genes]	LD10 (O. bicornis [11]) [μg/bee]	other results
O=[N+]([O-])NC1=NCCN1Cc1ccc(Cl)nc1 [imidacloprid]	0.046	highly toxic	No significant difference	8.08	27	metabolise these compounds to their hydroxylated forms	metabolise these compounds to their hydroxylated forms	165 (≈ 645 µM)	1	1.7 +/- 0.12	85.9 (≈ 336 µM)	0.5	no significant differences in sensitivity	135 (≈ 530 µM)	0.8	no significant differences in sensitivity	no P450 showed a significant increase in expression	27	0.0001	fold more sensitive to imidacloprid than thiacloprid (O. bicornis [1]; adult female bees, ratio of contact LD50): > 2,000 fold; Slope (+/- SE) ([7]; log-dose probit mortality, CYP9BU1 strain): 1.3 +/- 0.13; Slope (+/- SE) ([9]; log-dose probit mortality, CYP9BU2 strain): 1.5 +/- 0.14
N#C/N=C1\SCCN1Cc1ccc(Cl)nc1 [thiacloprid]	> 100	practically non-toxic	> 7 fold	8.62	28	metabolise these compounds to their hydroxylated forms	metabolise these compounds to their hydroxylated forms	17 (≈ 67.4 µM)	1	1.2 +/- 0.14	65.7 (≈ 260 µM)	3.8	~ 4 times	17.5 (≈ 69.2 µM)	1.1	no significant resistance	no P450 showed a significant increase in expression	16	0.01	mortality (O. bicornis [1]; 1 μL at 0.0001-10 μg/μL, contact): No mortality; efficiency of metabolism relative to imidacloprid (CYP9BU1 [3]; [12]): significantly greater efficiency than imidacloprid; efficiency of metabolism relative to imidacloprid (CYP9BU2 [4]; [12]): significantly greater efficiency than imidacloprid
